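1) Cells in 96-well plates. 2) Compound, 48 h, 5 concentrations. 3) Linear interpolation between surrounding doses. 4) Unreached endpoint = highest concentration. GI50 = concentration required for 50% inhibition of growth. TGI: total growth inhibition.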
Test system: HCC-2998 colon
Assay: growth of human tumour cells (NCI), 48 h

| SMILES | TGI [µM] | GI50 [µM] |
| --- | --- | --- |
| Cc1ccc(S(=O)(=O)N(CC(=O)O)c2ccccc2)cc1 | > 100 | – |
| O=C(/C=C/c1ccccc1O)c1ccccc1O | > 100 | – |
| S=C(Nc1ccccc1)N(/N=C/C=C/c1ccccc1)c1nnc(-c2ccccc2)c(-c2ccccc2)n1 | > 100 | – |
| CN1CCN(CCOc2ccc(-c3cnc4c(-c5ccccc5F)cnn4c3)cc2)CC1 | 3.25 | 1.73 |
| CN(C)N=Nc1ccc(NC=O)cc1 | > 100 | – |

Test system: HCT-116 colon
Assay: growth of human tumour cells (NCI), 48 h

| SMILES | TGI [µM] | GI50 [µM] |
| --- | --- | --- |
| CC(C)N(C(=O)C12C3C4C5(C#N)C3C1(C#N)C5C42I)C(C)C (stereo not drawn) | 31.5 | – |
| COc1cc2nc(-c3ccc(Cl)cc3)cc(OCCCN3CCCCC3)c2cc1OC | > 100 | 0.828 |
| COc1ccc2c3c([nH]c2c1[N+](=O)[O-])C(C)=NCC3 | > 100 | – |
| CC(C)(C)CC(C)(C)c1cc2c(O)c(c1)Cc1cc(C(C)(C)CC(C)(C)C)cc(c1O)Cc1cc(C(C)(C)CC(C)(C)C)cc(c1O)Cc1cc(C(C)(C)CC(C)(C)C)cc(c1O)C2 | > 100 | – |
| Cc1cc([N+](=O)[O-])ccc1Nc1cccc(Cl)c1C | 29.6 | – |
| O=C(O)C1C2C=CC(O2)C1C(=O)NCc1ccccn1 (stereo not drawn) | > 100 | – |
| CC1=C(C(=O)Nc2ccccc2)C(c2ccccc2)C(C(=O)Nc2ccccc2)=C(C)N1 | > 100 | – |
| O=C(OC(CNc1cc(=O)n(Cc2ccccc2)c(=O)n1Cc1ccccc1)CN1CCCC1)c1ccccc1 (stereo not drawn) | > 100 | 56.8 |
| Cc1nn(-c2ccccc2)c2nc(N3CCOCC3)nnc12 | > 100 | – |
| CCOC(=O)CCCn1c(SC)nc2[nH]cc(-c3ccccc3)c2c1=O | 34 | 14.1 |
| CCN(CC)CCOc1ccc(-c2nc3cc(Cl)ccc3s2)cc1 | 2.5 | 1.25 |
| CNC(=O)N(C)N=NCCCl | > 100 | – |
| CCOc1ccccc1C=C1c2ccccc2C(=O)c2ccccc21 | 29.5 | – |
| CCN1CCN(C(c2ccc(C(F)(F)F)cc2)c2ccc3cccnc3c2O)CC1 (stereo not drawn) | 13.5 | 3.06 |
| [N-]=[N+]=NC12CC3C4CC5CC3C(C1)C(C5)C4C2 | > 100 | – |
| NNC(=S)N/N=C(\CC1OC(=O)c2ccccc21)c1ccccc1O (stereo not drawn) | > 100 | – |
| COC(=O)C1=C(O)c2cc(OC)c(OC)cc2C(c2ccc(OC)c(OC)c2)C1 (stereo not drawn) | > 100 | – |
| COC1(OC)CC2C(=O)N(Cc3ccccc3)C1C(S(=O)(=O)c1ccccc1)C2S(=O)(=O)c1ccccc1 (stereo not drawn) | 29.9 | – |
| NC(=Nc1c([N+](=O)[O-])cnc2ccccc12)N1CCOCC1 | > 100 | – |
| Cc1cc(CC(O)c2ccc(Cl)c(Cl)c2)nc(=O)[nH]1 (stereo not drawn) | 54.2 | – |
| CC1=NNC(=O)C2CCC(=O)N12 (stereo not drawn) | > 100 | – |
| CC(C)c1ccccc1NC(=O)CCc1n[nH]c(=S)o1 | > 100 | – |
| CCCCC(C(=O)C(=O)NC1C2CC3CC(C2)CC1C3)C(=O)C(C)C (stereo not drawn) | > 100 | – |
| COC(=O)c1cc2c(s1)C(=O)c1ccccc1-2 | > 100 | – |
| COc1ccc(C(=O)C(c2ccc(OC)cc2)C2(O)C(=O)Nc3ccc([N+](=O)[O-])cc32)cc1 (stereo not drawn) | > 100 | – |
| O=C(/C=C/c1ccccc1O)c1ccccc1O | > 100 | – |
| N#CC(N)(C(=O)CCC(=O)Nc1cccc(Cl)c1)c1ccc(Cl)cc1 (stereo not drawn) | > 100 | – |
| CN(C)N=Nc1ccc(NC=O)cc1 | > 100 | – |

Test system: HL-60(TB) leukemia
Assay: growth of human tumour cells (NCI), 48 h

| SMILES | TGI [µM] | GI50 [µM] |
| --- | --- | --- |
| CC(C)N(C(=O)C12C3C4C5(C#N)C3C1(C#N)C5C42I)C(C)C (stereo not drawn) | > 55.6 | – |
| COc1ccc2c3c([nH]c2c1[N+](=O)[O-])C(C)=NCC3 | > 100 | – |
| CC(C)(C)CC(C)(C)c1cc2c(O)c(c1)Cc1cc(C(C)(C)CC(C)(C)C)cc(c1O)Cc1cc(C(C)(C)CC(C)(C)C)cc(c1O)Cc1cc(C(C)(C)CC(C)(C)C)cc(c1O)C2 | > 100 | – |
| Cc1cc([N+](=O)[O-])ccc1Nc1cccc(Cl)c1C | 41.6 | – |
| O=C(O)C1C2C=CC(O2)C1C(=O)NCc1ccccn1 (stereo not drawn) | > 100 | – |
| CC1=C(C(=O)Nc2ccccc2)C(c2ccccc2)C(C(=O)Nc2ccccc2)=C(C)N1 | > 100 | – |
| CCOC(=O)CCCn1c(SC)nc2[nH]cc(-c3ccccc3)c2c1=O | 15 | 1.05 |
| CCN(CC)CCOc1ccc(-c2nc3cc(Cl)ccc3s2)cc1 | 5.12 | 1.56 |
| CNC(=O)N(C)N=NCCCl | > 100 | – |
| CCOc1ccccc1C=C1c2ccccc2C(=O)c2ccccc21 | 8.46 | – |
| O=C(CCn1[nH]c(=O)c(Cl)c(Cl)c1=O)NO | > 100 | – |
| CCN1CCN(C(c2ccc(C(F)(F)F)cc2)c2ccc3cccnc3c2O)CC1 (stereo not drawn) | 5.6 | 2.09 |
| CN(C)c1nc2ccccc2[nH]1 | > 100 | – |
| NNC(=S)N/N=C(\CC1OC(=O)c2ccccc21)c1ccccc1O (stereo not drawn) | > 100 | – |
| COC(=O)C1=C(O)c2cc(OC)c(OC)cc2C(c2ccc(OC)c(OC)c2)C1 (stereo not drawn) | > 100 | – |
| COC1(OC)CC2C(=O)N(Cc3ccccc3)C1C(S(=O)(=O)c1ccccc1)C2S(=O)(=O)c1ccccc1 (stereo not drawn) | 17.3 | – |
| NC(=Nc1c([N+](=O)[O-])cnc2ccccc12)N1CCOCC1 | > 100 | – |
| Cc1cc(CC(O)c2ccc(Cl)c(Cl)c2)nc(=O)[nH]1 (stereo not drawn) | > 100 | – |
| COC(=O)C(=Cc1cc(OC)ccc1OC)C(=O)OC | 59.1 | – |
| CC1=NNC(=O)C2CCC(=O)N12 (stereo not drawn) | > 100 | – |
| CC(C)c1ccccc1NC(=O)CCc1n[nH]c(=S)o1 | > 89.2 | – |
| CCCCC(C(=O)C(=O)NC1C2CC3CC(C2)CC1C3)C(=O)C(C)C (stereo not drawn) | > 100 | – |
| COC(=O)c1cc2c(s1)C(=O)c1ccccc1-2 | > 100 | – |
| Cn1c2c(c3ccccc31)C1CCCCCCC1C1C(=O)OC(=O)C21 (stereo not drawn) | 63.1 | – |
| Cc1ccc(S(=O)(=O)N(CC(=O)O)c2ccccc2)cc1 | > 100 | – |
| COc1ccc(C(=O)C(c2ccc(OC)cc2)C2(O)C(=O)Nc3ccc([N+](=O)[O-])cc32)cc1 (stereo not drawn) | > 100 | – |
| O=C(/C=C/c1ccccc1O)c1ccccc1O | > 100 | – |
| N#CC(N)(C(=O)CCC(=O)Nc1cccc(Cl)c1)c1ccc(Cl)cc1 (stereo not drawn) | > 100 | – |
| S=C(Nc1ccccc1)N(/N=C/C=C/c1ccccc1)c1nnc(-c2ccccc2)c(-c2ccccc2)n1 | 52.4 | – |
| CN(C)N=Nc1ccc(NC=O)cc1 | > 100 | – |

Test system: HOP-92 NSCLC
Assay: growth of human tumour cells (NCI), 48 h

| SMILES | TGI [µM] | GI50 [µM] |
| --- | --- | --- |
| CC(C)N(C(=O)C12C3C4C5(C#N)C3C1(C#N)C5C42I)C(C)C (stereo not drawn) | > 100 | – |
| COc1cc2nc(-c3ccc(Cl)cc3)cc(OCCCN3CCCCC3)c2cc1OC | 6.24 | 1.02 |
| CC(C)(C)CC(C)(C)c1cc2c(O)c(c1)Cc1cc(C(C)(C)CC(C)(C)C)cc(c1O)Cc1cc(C(C)(C)CC(C)(C)C)cc(c1O)Cc1cc(C(C)(C)CC(C)(C)C)cc(c1O)C2 | > 100 | – |
| O=C(O)C1C2C=CC(O2)C1C(=O)NCc1ccccn1 (stereo not drawn) | > 100 | – |
| CC1=C(C(=O)Nc2ccccc2)C(c2ccccc2)C(C(=O)Nc2ccccc2)=C(C)N1 | > 100 | – |
